The numbers were not newly measured in patent US20070122366A1 (priority 2005, published 2007), which cites them from elsewhere.

For data set [1] the following is noted: oral administration.

`CN(C/C=C/C#CC(C)(C)C)Cc1cccc2ccccc12` [Terbinafine]: the average mycological cure in the data set on onychomycosis (18 randomized controlled trials, onychomycosis) is reported as 76%. In the data set on onychomycosis (treatment of toenail onychomycosis), the “activity in comparative studies” value is “greater than itraconazole and fluconazole”. Also, in data set [1] (after the treatment has finished), the “persistence of concentration in nails” value was “at least 30 weeks”. The “time at which concentration in nails is detected” value in data set [1] (after therapy started) was “within the first week”.
